Experimental data taken from publication PMC2276626, “Structure-Based Inhibitors Exhibit Differential Activities against Helicobacter pylori and Escherichia coli Undecaprenyl Pyrophosphate Synthases” (Journal of Biomedicine and Biotechnology, 2008).

Legend:
[1] = target: T1, Undecaprenyl pyrophosphate synthase (UPPS) (Helicobacter pylori, UniProt P55984); assay: enzyme activity dose-response with […] UPPS; type: biochemical
T1 sequence (P55984 1-234): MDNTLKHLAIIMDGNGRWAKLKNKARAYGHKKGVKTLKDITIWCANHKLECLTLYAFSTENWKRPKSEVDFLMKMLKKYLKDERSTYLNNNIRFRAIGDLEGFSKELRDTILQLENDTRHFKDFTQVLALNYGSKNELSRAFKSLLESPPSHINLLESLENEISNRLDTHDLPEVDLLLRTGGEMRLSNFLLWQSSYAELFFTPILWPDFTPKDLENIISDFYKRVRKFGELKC

[2] = target: T2, Undecaprenyl pyrophosphate synthase (UPPS) (Escherichia coli, UniProt P60472); assay: enzyme activity dose-response with […] UPPS; type: biochemical
T2 construct: gene ispU
T2 sequence (P60472 whole entry): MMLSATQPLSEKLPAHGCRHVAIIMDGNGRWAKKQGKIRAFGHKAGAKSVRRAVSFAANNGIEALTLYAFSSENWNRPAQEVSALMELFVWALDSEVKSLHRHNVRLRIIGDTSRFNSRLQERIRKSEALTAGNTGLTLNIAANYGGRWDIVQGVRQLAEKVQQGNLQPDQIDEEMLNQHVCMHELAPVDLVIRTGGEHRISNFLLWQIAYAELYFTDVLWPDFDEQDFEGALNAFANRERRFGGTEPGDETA

[3] = tested on: C=C(C)CCO[P@@](=O)(O)OP(=O)(O)O; assay: steady-state enzyme kinetics (Km); type: biochemical, Helicobacter pylori; conditions: Mg2+
[4] = tested on: CC(C)=CCC/C(C)=C/CC/C(C)=C/CO[P@@](=O)(O)OP(=O)(O)O; assay: steady-state enzyme kinetics (Km); type: biochemical, Helicobacter pylori; conditions: Mg2+
[5] = target: Undecaprenyl pyrophosphate synthase (UPPS) (Helicobacter pylori, UniProt P55984, C234A)
[6] = substrate: C=C(C)CCO[P@@](=O)(O)OP(=O)(O)O; assay: steady-state enzyme kinetics (Km); type: biochemical, Helicobacter pylori; conditions: Mg2+; remark: listed apart in the source
[7] = substrate: CC(C)=CCC/C(C)=C/CC/C(C)=C/CO[P@@](=O)(O)OP(=O)(O)O; assay: steady-state enzyme kinetics (Km); type: biochemical, Helicobacter pylori; conditions: Mg2+; remark: listed apart in the source

Molecule: NS(=O)(=O)c1cccc(-c2ccc(C3Nc4ccccc4-c4nc5ccccc5n43)o2)c1 (centres unmarked) [HTS04781]
- IC50 [1]: 362 µM

Molecule: O=S(=O)(CS(=O)(=O)Nc1nc2ccc(Cl)cc2s1)Nc1nc2ccc(Cl)cc2s1 [BTB06061]
- IC50 [2]: 71 µM
- IC50 [1]: 350 µM

Molecule: Undecaprenyl pyrophosphate synthase (UPPS) (Helicobacter pylori 26695; C234A)
- Km [3]: 9.6 ± 0.2 µM
- Km [4]: 0.15 ± 0.04 µM

Molecule: O=P(O)(O)OP(=O)(O)O [pyrophosphate]
- X-ray crystal structure at 2.5 Å (crystals soaked with FsPP, IPP and MgCl2); only [5]: only the pyrophosphate of FsPP was found in the complex structure

B1: Undecaprenyl pyrophosphate synthase (UPPS) (Helicobacter pylori 26695) (protein)
chain: MDNTLKHLAIIMDGNGRWAKLKNKARAYGHKKGVKTLKDITIWCANHKLECLTLYAFSTENWKRPKSEVDFLMKMLKKYLKDERSTYLNNNIRFRAIGDLEGFSKELRDTILQLENDTRHFKDFTQVLALNYGSKNELSRAFKSLLESPPSHINLLESLENEISNRLDTHDLPEVDLLLRTGGEMRLSNFLLWQSSYAELFFTPILWPDFTPKDLENIISDFYKRVRKFGELKC
- Km [6]: 9.2 ± 0.1 µM
- Km [7]: 0.11 ± 0.02 µM
